Laboratory results taken from publication PMC7026418, “The kinase polypharmacology landscape of clinical PARP inhibitors” (Scientific Reports, 2020).
Like-named read-outs stand apart in the source and are kept apart here. Values belong to the compound of their own block, whether it stands above or below them.

Legend:
Experiment in all cases: biochemical
Set-up in all cases: DiscoveRx KINOMEscan active site-directed competition binding; percent of control kinase bound to immobilised ligand
PCTK2 = biological target: T1, PCTK2 (Homo sapiens, UniProt Q00537)
T1 construct: gene CDK17

DCAMKL2 = biological target: T2, DCAMKL2 (Homo sapiens, UniProt Q8N568)
T2 construct: gene DCLK2
T2 sequence (Q8N568 1-766): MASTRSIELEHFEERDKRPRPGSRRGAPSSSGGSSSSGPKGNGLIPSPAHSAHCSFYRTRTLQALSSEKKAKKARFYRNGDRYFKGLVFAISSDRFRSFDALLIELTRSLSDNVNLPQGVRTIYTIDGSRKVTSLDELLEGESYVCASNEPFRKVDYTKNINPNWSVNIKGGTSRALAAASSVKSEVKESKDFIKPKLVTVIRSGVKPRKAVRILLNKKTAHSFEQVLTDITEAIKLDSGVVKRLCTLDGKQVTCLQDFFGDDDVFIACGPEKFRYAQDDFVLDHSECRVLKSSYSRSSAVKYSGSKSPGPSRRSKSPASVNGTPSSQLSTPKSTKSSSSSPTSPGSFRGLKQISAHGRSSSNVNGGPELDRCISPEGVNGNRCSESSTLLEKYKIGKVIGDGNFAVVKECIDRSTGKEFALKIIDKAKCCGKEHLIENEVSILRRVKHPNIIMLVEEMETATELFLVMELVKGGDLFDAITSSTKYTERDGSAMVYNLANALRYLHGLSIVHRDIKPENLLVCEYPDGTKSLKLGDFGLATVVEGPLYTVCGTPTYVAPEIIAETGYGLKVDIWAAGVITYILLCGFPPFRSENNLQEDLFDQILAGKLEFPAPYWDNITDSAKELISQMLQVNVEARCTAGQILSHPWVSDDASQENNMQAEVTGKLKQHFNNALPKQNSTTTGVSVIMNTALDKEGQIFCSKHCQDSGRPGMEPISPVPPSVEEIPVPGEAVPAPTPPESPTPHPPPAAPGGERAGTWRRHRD

MAP3K1 = MAP3K1 (Homo sapiens, UniProt Q13233)
MLK3 = biological target: T3, MLK3 (Homo sapiens, UniProt Q16584)
T3 construct: gene MAP3K11

MYLK = MYLK (Homo sapiens, UniProt Q15746)
[1] = biological target: T4, ABL1(Y253F)-phosphorylated (Homo sapiens, UniProt P00519, Y253F)
T4 construct: phosphorylated

SGK2 = biological target: T5, SGK2 (Homo sapiens, UniProt Q9HBY8)
T5 sequence (Q9HBY8 1-367): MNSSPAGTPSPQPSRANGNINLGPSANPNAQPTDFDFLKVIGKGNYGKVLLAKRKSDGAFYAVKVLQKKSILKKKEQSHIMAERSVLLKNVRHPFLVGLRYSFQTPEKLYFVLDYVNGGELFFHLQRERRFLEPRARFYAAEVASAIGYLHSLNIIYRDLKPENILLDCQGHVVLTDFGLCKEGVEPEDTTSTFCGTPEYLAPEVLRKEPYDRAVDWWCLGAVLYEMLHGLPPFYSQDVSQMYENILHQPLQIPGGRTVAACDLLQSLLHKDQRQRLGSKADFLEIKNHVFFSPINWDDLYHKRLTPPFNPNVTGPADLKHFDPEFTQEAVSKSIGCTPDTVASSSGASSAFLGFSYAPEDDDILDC

CDKL2 = biological target: T6, CDKL2 (Homo sapiens, UniProt Q92772)
T6 sequence (Q92772 1-493): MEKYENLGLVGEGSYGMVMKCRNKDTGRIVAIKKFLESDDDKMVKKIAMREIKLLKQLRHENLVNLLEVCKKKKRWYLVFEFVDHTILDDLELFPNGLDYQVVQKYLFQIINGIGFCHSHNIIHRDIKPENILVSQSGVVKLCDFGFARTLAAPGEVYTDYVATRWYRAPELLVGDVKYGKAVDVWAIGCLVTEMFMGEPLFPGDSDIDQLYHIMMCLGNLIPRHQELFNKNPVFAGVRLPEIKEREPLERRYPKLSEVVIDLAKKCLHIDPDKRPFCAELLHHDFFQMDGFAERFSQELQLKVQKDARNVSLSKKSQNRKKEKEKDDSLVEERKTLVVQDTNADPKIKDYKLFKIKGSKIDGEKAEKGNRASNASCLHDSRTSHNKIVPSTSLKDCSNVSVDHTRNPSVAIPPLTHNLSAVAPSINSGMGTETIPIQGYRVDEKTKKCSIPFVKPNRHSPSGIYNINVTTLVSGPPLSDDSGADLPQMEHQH

AKT1 = AKT1 (Homo sapiens, UniProt P31749)
EPHA7 = EPHA7 (Homo sapiens, UniProt Q15375)
DDR1 = DDR1 (Homo sapiens, UniProt Q08345)
[2] = read-out: Niraparib (MK-4827) / %Ctrl @ 10000nM
[3] = read-out: Rucaparib / %Ctrl @ 10000nM, binding competition, % of control
[4] = read-out: Olaparib / %Ctrl @ 10000nM
[5] = read-out: Talazoparib (BMN 673) / %Ctrl @ 10000nM

Sequence of AKT1 (P31749 whole entry): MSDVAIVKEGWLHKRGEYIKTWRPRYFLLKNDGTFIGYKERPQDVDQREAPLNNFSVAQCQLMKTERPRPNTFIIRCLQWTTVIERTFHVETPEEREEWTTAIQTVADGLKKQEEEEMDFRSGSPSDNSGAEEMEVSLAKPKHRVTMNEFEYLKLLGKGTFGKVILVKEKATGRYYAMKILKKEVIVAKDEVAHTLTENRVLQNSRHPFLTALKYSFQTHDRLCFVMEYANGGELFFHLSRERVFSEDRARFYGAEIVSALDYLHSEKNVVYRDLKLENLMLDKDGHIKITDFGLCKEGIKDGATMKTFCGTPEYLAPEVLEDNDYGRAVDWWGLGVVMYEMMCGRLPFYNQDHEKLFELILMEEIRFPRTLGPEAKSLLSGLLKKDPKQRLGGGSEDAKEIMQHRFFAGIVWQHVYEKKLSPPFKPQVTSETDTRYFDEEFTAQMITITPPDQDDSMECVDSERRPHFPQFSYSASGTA
Sequence of EPHA7 (Q15375 whole entry): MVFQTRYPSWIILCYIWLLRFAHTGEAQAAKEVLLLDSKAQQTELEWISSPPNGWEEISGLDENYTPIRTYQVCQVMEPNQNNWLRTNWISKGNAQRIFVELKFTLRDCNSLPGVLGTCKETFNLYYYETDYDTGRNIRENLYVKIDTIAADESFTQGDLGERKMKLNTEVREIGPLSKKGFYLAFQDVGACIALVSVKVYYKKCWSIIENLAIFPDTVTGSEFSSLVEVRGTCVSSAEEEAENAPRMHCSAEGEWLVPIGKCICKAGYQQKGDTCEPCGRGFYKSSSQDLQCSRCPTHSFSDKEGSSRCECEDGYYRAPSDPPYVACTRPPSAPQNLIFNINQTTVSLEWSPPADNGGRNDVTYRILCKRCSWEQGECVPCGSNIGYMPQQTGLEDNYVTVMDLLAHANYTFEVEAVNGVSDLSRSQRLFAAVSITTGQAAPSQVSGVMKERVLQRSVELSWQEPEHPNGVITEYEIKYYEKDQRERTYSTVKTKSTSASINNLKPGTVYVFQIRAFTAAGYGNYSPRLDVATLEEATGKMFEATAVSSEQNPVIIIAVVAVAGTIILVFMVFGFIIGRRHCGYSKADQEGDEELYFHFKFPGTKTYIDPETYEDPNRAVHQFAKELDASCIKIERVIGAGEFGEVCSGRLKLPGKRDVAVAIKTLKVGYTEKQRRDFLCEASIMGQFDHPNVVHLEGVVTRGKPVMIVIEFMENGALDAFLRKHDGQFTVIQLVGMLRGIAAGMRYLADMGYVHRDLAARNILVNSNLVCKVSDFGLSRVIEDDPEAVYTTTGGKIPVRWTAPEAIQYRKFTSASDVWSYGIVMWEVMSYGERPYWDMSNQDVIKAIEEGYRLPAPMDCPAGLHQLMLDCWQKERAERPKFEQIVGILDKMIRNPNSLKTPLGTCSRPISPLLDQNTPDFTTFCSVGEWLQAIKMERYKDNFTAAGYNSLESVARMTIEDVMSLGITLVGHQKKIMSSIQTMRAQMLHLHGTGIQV
T1 sequence (Q00537 whole entry): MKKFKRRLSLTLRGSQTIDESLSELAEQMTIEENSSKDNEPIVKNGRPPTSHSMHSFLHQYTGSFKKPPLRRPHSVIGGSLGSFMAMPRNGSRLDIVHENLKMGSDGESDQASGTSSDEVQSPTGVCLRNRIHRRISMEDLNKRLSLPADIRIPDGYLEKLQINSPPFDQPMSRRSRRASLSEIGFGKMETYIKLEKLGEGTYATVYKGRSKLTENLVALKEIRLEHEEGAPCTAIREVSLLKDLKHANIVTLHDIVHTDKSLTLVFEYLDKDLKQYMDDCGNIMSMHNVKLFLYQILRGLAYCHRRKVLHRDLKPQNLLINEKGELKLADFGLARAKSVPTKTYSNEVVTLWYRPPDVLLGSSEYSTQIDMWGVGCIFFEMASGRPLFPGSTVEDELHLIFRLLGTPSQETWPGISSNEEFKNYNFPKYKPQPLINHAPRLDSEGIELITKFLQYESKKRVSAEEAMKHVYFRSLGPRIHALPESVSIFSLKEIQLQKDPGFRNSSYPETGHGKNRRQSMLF
T3 sequence (Q16584 whole entry): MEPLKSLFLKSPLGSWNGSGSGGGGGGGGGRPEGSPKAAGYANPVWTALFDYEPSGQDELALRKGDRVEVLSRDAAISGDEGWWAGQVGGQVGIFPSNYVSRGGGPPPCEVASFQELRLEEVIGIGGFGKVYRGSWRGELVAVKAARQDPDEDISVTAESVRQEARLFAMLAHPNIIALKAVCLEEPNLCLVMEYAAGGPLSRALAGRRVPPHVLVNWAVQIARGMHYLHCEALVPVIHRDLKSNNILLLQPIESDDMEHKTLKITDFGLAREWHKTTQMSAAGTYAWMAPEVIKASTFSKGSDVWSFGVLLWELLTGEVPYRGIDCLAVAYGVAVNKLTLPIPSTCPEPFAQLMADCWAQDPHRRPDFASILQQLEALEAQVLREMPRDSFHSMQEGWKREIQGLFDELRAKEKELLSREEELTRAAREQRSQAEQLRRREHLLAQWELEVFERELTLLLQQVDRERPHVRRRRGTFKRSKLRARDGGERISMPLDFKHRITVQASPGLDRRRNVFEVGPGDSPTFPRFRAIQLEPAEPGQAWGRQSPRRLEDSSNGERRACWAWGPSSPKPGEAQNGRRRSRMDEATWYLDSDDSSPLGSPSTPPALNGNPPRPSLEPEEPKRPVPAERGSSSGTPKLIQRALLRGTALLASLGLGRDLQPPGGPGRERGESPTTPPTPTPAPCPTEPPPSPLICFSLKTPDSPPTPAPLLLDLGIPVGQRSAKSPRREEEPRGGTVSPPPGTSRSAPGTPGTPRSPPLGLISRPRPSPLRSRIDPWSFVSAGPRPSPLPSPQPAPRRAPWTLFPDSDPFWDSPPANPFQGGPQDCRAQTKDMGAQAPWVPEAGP
Sequence of MYLK (Q15746 whole entry): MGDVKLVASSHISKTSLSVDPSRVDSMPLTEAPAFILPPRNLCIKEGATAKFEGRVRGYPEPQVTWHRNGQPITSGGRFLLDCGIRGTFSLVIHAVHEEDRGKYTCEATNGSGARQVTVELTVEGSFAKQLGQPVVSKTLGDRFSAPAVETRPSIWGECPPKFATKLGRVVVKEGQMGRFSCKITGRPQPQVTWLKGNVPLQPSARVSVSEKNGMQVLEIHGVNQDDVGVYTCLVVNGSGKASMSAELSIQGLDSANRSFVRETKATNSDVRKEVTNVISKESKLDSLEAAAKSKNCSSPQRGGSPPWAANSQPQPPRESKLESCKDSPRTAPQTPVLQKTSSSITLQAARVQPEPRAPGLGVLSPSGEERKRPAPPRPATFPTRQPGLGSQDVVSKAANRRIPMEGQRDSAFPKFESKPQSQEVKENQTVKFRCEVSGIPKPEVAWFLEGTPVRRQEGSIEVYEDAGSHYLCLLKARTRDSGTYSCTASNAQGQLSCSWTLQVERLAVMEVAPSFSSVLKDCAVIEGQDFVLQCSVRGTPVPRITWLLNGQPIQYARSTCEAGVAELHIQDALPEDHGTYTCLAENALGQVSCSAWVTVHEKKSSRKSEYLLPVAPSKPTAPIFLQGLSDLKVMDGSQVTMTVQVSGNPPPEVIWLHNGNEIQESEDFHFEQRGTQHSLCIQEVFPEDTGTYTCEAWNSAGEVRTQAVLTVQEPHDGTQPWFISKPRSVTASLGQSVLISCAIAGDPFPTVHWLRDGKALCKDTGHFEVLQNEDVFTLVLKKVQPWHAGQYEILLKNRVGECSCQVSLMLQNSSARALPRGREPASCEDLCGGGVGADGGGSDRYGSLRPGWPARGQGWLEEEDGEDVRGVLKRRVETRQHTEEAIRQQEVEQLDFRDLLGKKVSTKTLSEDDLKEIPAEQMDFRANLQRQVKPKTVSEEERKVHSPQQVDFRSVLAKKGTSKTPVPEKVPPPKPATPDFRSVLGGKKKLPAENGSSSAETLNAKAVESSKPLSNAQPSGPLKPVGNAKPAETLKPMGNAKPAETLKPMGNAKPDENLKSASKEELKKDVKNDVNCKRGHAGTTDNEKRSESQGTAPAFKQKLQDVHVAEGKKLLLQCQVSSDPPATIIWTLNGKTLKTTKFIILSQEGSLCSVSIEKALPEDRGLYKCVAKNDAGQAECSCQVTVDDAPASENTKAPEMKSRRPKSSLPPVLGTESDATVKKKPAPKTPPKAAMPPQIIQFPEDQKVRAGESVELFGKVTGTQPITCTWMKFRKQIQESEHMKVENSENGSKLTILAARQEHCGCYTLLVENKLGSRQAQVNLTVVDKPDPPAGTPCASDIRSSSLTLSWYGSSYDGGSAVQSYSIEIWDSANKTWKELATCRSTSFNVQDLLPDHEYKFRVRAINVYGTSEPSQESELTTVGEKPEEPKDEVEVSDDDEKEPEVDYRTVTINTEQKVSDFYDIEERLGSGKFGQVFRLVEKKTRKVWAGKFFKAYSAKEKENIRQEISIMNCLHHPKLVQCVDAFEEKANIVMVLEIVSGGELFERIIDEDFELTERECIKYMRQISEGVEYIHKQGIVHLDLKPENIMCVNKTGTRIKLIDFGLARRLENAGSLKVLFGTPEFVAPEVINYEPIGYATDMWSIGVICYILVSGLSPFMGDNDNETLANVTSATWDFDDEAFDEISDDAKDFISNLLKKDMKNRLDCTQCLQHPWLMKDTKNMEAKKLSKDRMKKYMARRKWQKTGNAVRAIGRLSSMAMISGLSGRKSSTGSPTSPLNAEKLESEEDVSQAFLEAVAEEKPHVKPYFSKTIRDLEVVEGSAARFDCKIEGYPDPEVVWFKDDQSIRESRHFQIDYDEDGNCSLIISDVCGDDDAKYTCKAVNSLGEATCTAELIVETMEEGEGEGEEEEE

Compound: NC(=O)c1cccc2cn(-c3ccc([C@@H]4CCCNC4)cc3)nc12 [Niraparib]
percent of control binding at 10 µM (PCTK2; [2]): 73% | percent of control binding at 10 µM (DCAMKL2; [2]): 83% | percent of control binding at 10 µM (MAP3K1; [2]): 92% | percent of control binding at 10 µM (MLK3; [2]): 84% | percent of control binding at 10 µM (MYLK; [2]): 73% | percent of control binding at 10 µM [1, 2]: 57% | percent of control binding at 10 µM (SGK2; [2]): 96% | percent of control binding at 10 µM (CDKL2; [2]): 23% | percent of control binding at 10 µM (AKT1; [2]): 99% | percent of control binding at 10 µM (EPHA7; [2]): 89% | percent of control binding at 10 µM (DDR1; [2]): 85%

percent of control binding at 10 µM (PCTK2; [3]): 54% | percent of control binding at 10 µM (DCAMKL2; [3]): 87% | percent of control binding at 10 µM (MAP3K1; [3]): 98% | percent of control binding at 10 µM (MLK3; [3]): 92% | percent of control binding at 10 µM (MYLK; [3]): 34% | percent of control binding at 10 µM [1, 3]: 69% | percent of control binding at 10 µM (SGK2; [3]): 78% | percent of control binding at 10 µM (CDKL2; [3]): 59% | percent of control binding at 10 µM (AKT1; [3]): 91% | percent of control binding at 10 µM (EPHA7; [3]): 100% | percent of control binding at 10 µM (DDR1; [3]): 96%
Compound: CNCc1ccc(-c2[nH]c3cc(F)cc4c3c2CCNC4=O)cc1 [Rucaparib]

percent of control binding at 10 µM (PCTK2; [4]): 100% | percent of control binding at 10 µM (DCAMKL2; [4]): 100% | percent of control binding at 10 µM (MAP3K1; [4]): 91% | percent of control binding at 10 µM (MLK3; [4]): 100% | percent of control binding at 10 µM (MYLK; [4]): 75% | percent of control binding at 10 µM [1, 4]: 79% | percent of control binding at 10 µM (SGK2; [4]): 99% | percent of control binding at 10 µM (CDKL2; [4]): 99% | percent of control binding at 10 µM (AKT1; [4]): 100% | percent of control binding at 10 µM (EPHA7; [4]): 100% | percent of control binding at 10 µM (DDR1; [4]): 77%
Compound: O=C(c1cc(Cc2n[nH]c(=O)c3ccccc23)ccc1F)N1CCN(C(=O)C2CC2)CC1 [Olaparib]

percent of control binding at 10 µM (PCTK2; [5]): 94% | percent of control binding at 10 µM (DCAMKL2; [5]): 100% | percent of control binding at 10 µM (MAP3K1; [5]): 97% | percent of control binding at 10 µM (MLK3; [5]): 70% | percent of control binding at 10 µM (MYLK; [5]): 77% | percent of control binding at 10 µM [1, 5]: 100% | percent of control binding at 10 µM (SGK2; [5]): 89% | percent of control binding at 10 µM (CDKL2; [5]): 100% | percent of control binding at 10 µM (AKT1; [5]): 92% | percent of control binding at 10 µM (EPHA7; [5]): 96% | percent of control binding at 10 µM (DDR1; [5]): 84%
Compound: Cn1ncnc1[C@H]1c2n[nH]c(=O)c3cc(F)cc(c23)N[C@@H]1c1ccc(F)cc1 [Talazoparib]
